Columns and labels:
rice seedlings [1] = assay: Seedling shoot and root growth under light/dark cycle or continuous darkness, with or without sucrose; type: in vivo; conditions: 3% (88 mM) sucrose, 6 days
Experimental: FIG. 5. SKINs repress seedling growth by inhibiting nutrient mobilization in the endosperm. Transgenic lines SKIN1-Ox(O3), SKIN1-Ri(R3), SKIN2-Ox(02) and SKIN2-Ri(R1) were used in the following experiments. (A) Seeds were germinated and grown in water at 28° C. under a 14-h light/10-h dark cycle or continuous darkness without (panel 1) or with (panel 2) 3% (90 mM) sucrose for 6 days. (B) Lengths of shoots and roots of seedlings in (A) were quantified. Panels 1 and 2, without and with sucrose, respectively. (C) Seedlings were grown under a 14-h light/10-h dark cycle or continuous darkness for 3 days. Total RNA was extracted and subjected to quantitative (real-time) RT-PCR analysis using primers specific for αAmy3 (panel 1) and EP3A (panel 2). Error bars represent SE (n=12) at significance levels: * p<0.1, **p<0.05 in (B) and (C).
Rice (Oryza sativa cv Tainung 67) and barley (Hordeum vulgare cv Himalaya) were used in this study. Embryo calli were induced in the Murashige & Skoog (MS) medium containing 3% sucrose and […] 2,4-D (2,4-Dichlorophenoxyacetic acid) for 5 days. For hydroponic culture of rice seedlings, seeds were sterilized with 1.5% NaOCl plus Tween 20 for 1 h, washed extensively with distilled water, and germinated in a petri dish with wetted filter papers at 28° C. under a 14-h light/10-h dark condition unless otherwise indicated. […]

rice seedlings [2] = assay: Seed germination and shoot elongation in air or under water (hypoxia); type: in vivo; conditions: under water with 90 mM sucrose
Experimental: FIG. 6. SKINs suppress sugar production necessary for seedling growth under hypoxia. Rice seeds were germinated in air or in water with or without 90 mM sucrose at 28° C. under a 14-h light/10-h dark cycle for various lengths of time. Shoot length of seedlings were measured daily. Error bars indicate the S.E. of shoot length (n=10). Panel 1: transgenic line SKIN1-04 overexpressing SKIN1; panel 2: transgenic line SKIN2-04 overexpressing SKIN2. For data using more SKIN-Ox and SKIN-Ri lines, see also FIG. 16 online.
FIG. 16. SKINs suppress sugar production necessary for underwater seedling growth. Rice seeds of SKIN-Ox and SKIN-Ri lines were germinated in air or in water with or without 90 mM sucrose for various lengths of time. Shoot length of seedlings were measured daily. Error bars indicate the S.E. of shoot length (n=10). Panel 1: in air; panel 2: in water; panel 3: in water with sucrose.
The experiment was performed as described (Lee et al., 2009). For germination in air, seeds were placed on 3M filter papers wetted with water in a 50-ml centrifuge tube which contains half-strength MS agar medium. For germination under water, seeds were placed in a 50-ml centrifuge tube, autoclaved water was carefully poured into the tube to avoid any air bubbles, and tubes were sealed with lids.

[3] = target: T1, GAD-SnRK1A (full-length SnRK1A 1-505 fused to the Gal4 activation domain) (rice, UniProt Q852Q2 1-505); assay: rice embryo GAL4-UAS two-hybrid, luciferase reporter
T1 construct: range 1-505
T1 sequence (looked up): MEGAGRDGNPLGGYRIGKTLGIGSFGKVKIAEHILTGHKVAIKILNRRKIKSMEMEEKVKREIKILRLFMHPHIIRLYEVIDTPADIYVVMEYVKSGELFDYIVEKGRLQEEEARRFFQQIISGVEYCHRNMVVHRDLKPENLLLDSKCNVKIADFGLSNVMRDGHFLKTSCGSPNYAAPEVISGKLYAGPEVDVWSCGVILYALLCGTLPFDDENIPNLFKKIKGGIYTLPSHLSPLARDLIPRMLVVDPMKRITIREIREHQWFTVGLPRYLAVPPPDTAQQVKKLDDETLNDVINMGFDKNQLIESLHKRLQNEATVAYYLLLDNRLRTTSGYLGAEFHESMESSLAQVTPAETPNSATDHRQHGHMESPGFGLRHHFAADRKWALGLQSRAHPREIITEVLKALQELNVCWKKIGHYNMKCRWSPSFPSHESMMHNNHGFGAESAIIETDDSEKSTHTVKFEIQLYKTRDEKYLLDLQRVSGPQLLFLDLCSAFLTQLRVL
Experimental: FIG. 2. The N-terminus of SKIN interacts with the kinase domain of SnRK1A. For the GAL4-UAS two-hybrid assay, rice embryos were co-transfected with effector and reporter plasmids, incubated in −S medium for 24 h, and assayed for luciferase activity. The luciferase activity in rice embryos bombarded with effectors Ubi:GAD, Ubi:GBD and reporter 5XUAS-35S mp:Luc was set to 1×, and other values were calculated relative to this value. Error bars indicate the SE for three replicate experiments. Significance levels: * p<0.1, ** p<0.05. The Y axis indicates the relative luciferase activity with different constructs. (A) Plasmid constructs. (B) Rice embryos were co-transfected with effectors Ubi:GAD-SnRK1A and Ubi:GBD-SKIN (wild type or truncated) and reporter 5XUAS-35S mp:Luc. (C) Rice embryos were co-transfected with effectors Ubi:GAD-SnRK1A [wild type, kinase domain (KD) or regulatory (RD)], Ubi:GBD-SKIN and reporter 5XUAS-35S mp:Luc. (D) Rice embryos were co-transfected with effectors Ubi:GAD-SnRK1A and Ubi:GBD-SKIN and reporter 5XUAS-35S mp:Luc, and incubated in −S medium containing 1 μM ABA.
Rice embryos were prepared for particle bombardment as described (Chen et al., 2006). The rice embryos were bombarded with reporter, effectors and internal control at a ratio of 4:2:1 for single effector or 4:2:2:1 for two effectors. […]

[4] = target: T2, SnRK1A (full length, expressed from Ubi:SnRK1A) (rice, UniProt Q852Q2 1-505); assay: co-expression and confocal localization of GFP fusions in barley aleurone cells
T2 construct: range 1-505; also called pUbi-SnRK1A-Nos
T2 sequence (looked up): T1 sequence (looked up)
Experimental: Detection of cellular localization of SKIN-GFP, SnRK1A-GFP and MYBS1-GFP fusion proteins were performed as described (Hong et al., 2012). Embryoless barley and rice seeds were sterilized with 1% NaOCl for 30 mins, and incubated in a buffer containing 20 mM CaCl₂ and 20 mM sodium succinate, pH 5.0, for 4 days. Aleurone layers were isolated by scratching away starch in the endosperm with a razor blade. Four aleurone layers were arranged in a 10-cm dish for bombardment. Aleurone layers expressing GFP were examined with a Ziess confocal microscope (LSM510META) using a 488-nm laser line for excitation and a 515- to 560-nm long pass filter for emission.
The subcellular localization of SKIN and SnRK1A was determined. As SKINs interact with the KD of SnRK1A, the full-length, KD and RD of SnRK1A were fused to the green fluorescence protein (GFP) and expressed under the control of the Ubi promoter in a barley aleurone cell transient expression system (Hong et al., 2012). As shown in FIG. 7 and FIG. 17, SnRK1A-GFP and SnRK1A-KD-GFP were largely localized in the cytoplasm and minor in the nucleus and SnRK1A-RD-GFP mainly in the nucleus, whereas SKIN1-GFP was predominantly localized in the nucleus and minor in the cytoplasm. Co-expression of SnRK1A-GFP with SKIN1 excluded all SnRK1A-GFP from the nucleus. […]

In the case of OC[C@H]1O[C@@](CO)(O[C@H]2O[C@H](CO)[C@@H](O)[C@H](O)[C@H]2O)[C@@H](O)[C@@H]1O [sucrose], the “Effect of sucrose on growth of SKIN-Ox lines” value (rice seedlings [1]) is reported as “recover the growth” and the “Effect of sucrose on retarded shoot elongation of SKIN-Ox lines” value (rice seedlings [2]) is reported as “significantly recovered”.

B1: GBD-SKIN2 86-261 (other)
chain: MKLLSSIEQACDICRLKKLKCSKEKPKCAKCLKNNWECRYSPKTKRSPLTRAHLTEVESRLERLEQLFLLIFPREDLDMILKMDSLQDIKALLTGLFVQDNVNKDAVTDRLASVETDMPLTLRQHRISATSSSEESSNKGQRQLTVSSKAKEVAVEVEGGGLGFHGLGTLESLEDALPIKRGLSNFYAGKSKSFTSLAEAAAKAAAKEIAKPENPFNKRRRVLAAWSRRRASCSSLATTYLPPLLAPDHAVVEEEDEEDDSDAEQCSGSGGGNRRREPTFPPPRLSLHAQKSSLTPRSSNPASSFRSPRSFSLSDLQNAGSYN
B1: no binding [3].

B2: SKIN1-GFP (other)
chain: MSTAVADVPPAAAYGFPGSAKRGKPEEVVVLMGKRRNEGFFIEEEEEEEEVLTESSSIGAPSPASSSIGENSGEEEGGDDEEEVESKLKAEDEQVGLGCLDALEESLPIKRGLSNFYAGKSKSFTSLAEATASPAAAANELAKPENPFNKRRRILATWSRRASCSSLATATYLPPLLAPDHAVAEGDEGEEEDDDSDDDERQHRGKNGGRRESAAPPLPLPPPRLTLHTQMGGMVRRNGTFRSPRSLSLSDLQNSGGSC
notes: also called Ubi:SKIN1-GFP; SKIN-GFP; not shown: green fluorescence protein (GFP)
B2: binds [4].

Source: US20180273970A1, “PLASMID, TRANSFORMED PLANT CELL AND TRANSGENIC PLANT COMPRISING THE SAME, AND METHODS FOR PREPARING A TRANSGENIC PLANT AND FOR INCREASING YIELD OF A PLANT UNDER ABIOTIC STRESSES” (Academia Sinica, priority 2014, published 2018)
